From US7745651B2, “Cationic lipids and methods of use” (Protiva Biotherapeutics, Inc., priority 2004, dated 2010)

What was measured:
Neuro2A-G cells = assay: Uptake of SNALP containing Cy3-labeled siRNA, fluorescence microscopy; format: cell-based; conditions: 0.5 μg/mL siRNA, 4 hours
Description: Uptake of SNALP Containing Cy3-labeled siRNA: SNALP were formulated as previously described, but using siRNA labelled with the fluorophore Cy3 (Cy3-siRNA was a gift of Sirna Therapeutics Inc, Boulder, Colo.). The encapsulation, siRNA concentration, and particle size were determined as described.
For the uptake study, 8×10^4 Neuro2A-G cells were grown overnight on 4-well chamber slides (BD Falcon, Mississauga, ON) in MEM containing 0.25 mg/mL G418. DSDMA, DODMA, DLinDMA, and DLenDMA SNALP containing Cy3-siRNA, as well as naked Cy3-siRNA and unlabeled DSDMA SNALP were placed on the cells at 0.5 μg/mL siRNA. After a 4 hour incubation with the transfection media, the cells were washed with PBS, then with MEM containing G418 and finally with PBS once more. […] The cells were viewed using an Olympus BX60 Microscope modified for fluorescence capabilities. Cy3 fluorescence within the cells was visualized using a rhodamine cube set (Microgen Optics, Redding, Calif.) and the DAPI fluorescence was visualized using a DAPI cube set (Carsen Group, Markham, ON). […] Pictures of the cells were taken at exposure times of ¼ sec when examining Cy3 fluorescence and 1/80 sec when examining DAPI fluorescence.
The uptake process was examined further with the use of fluorescently labelled SNALP. […] The Cy3 fluorescence (red) is most intense in cells treated with DSDMA containing SNALP. […]

[1] = 31P-NMR of DPPS/cationic lipid MLV, bilayer-to-hexagonal phase transition temperature; format: physicochemical; conditions: MLV of DPPS and cationic lipid 1:1 molar ratio, 10 mM sodium citrate pH 4
Description: ^31P Nuclear Magnetic Resonance Spectroscopy: Multilamellar vesicles (MLV) were prepared comprising DPPS and cationic lipid at a molar ratio of 1:1. This was accomplished by drying the lipids from chloroform solution, transferring to 10 mm NMR tubes, and hydrating in 1.5 mL of 10 mM sodium citrate, pH 4. Free induction decays (FIDs) corresponding to 1000 scans were obtained with a 3.0 μs, 60o pulse with a 1 s interpulse delay and a spectral width of 25000 Hz. A gated two-level proton decoupling was used to ensure sufficient decoupling with minimum sample heating. An exponential multiplication corresponding to 50 Hz of line broadening was applied to the FIDs prior to Fourier transformation. The sample temperature (+/−1° C.) was regulated using a Bruker B-VT1000 variable temperature unit. Chemical shifts were referenced to 85% phosphoric acid as an external standard.
The significance of saturation with respect to phase transition temperature was investigated using ^31P-NMR. […] By determining the temperature at which the conversion occurs, the relative ease with which the lipids form the HII phase, their ‘fusogenicity’, can be determined.
MLV were prepared using the anionic lipid DPPS in a 1:1 molar ratio with each cationic lipid. The ^31P-NMR spectra of the MLV were measured at various temperatures. […]

SMILES | cellular uptake of Cy3-labeled siRNA (Cy3 fluorescence) (Neuro2A-G cells) | bilayer-to-hexagonal (HII) phase transition temperature (Tc) [1] [°C]
CCCCCCCCCCCCCCCCCC[N+](C)(C)CCCCCCCCCCCCCCCCCC [DSDMA, Distearyldimethylammonium] | most intense | > 50
CC/C=C\C/C=C\C/C=C\CCCCCCCCOCC(CN(C)C)OCCCCCCCC/C=C\C/C=C\C/C=C\CC (stereo not drawn) [DLenDMA, 1,2-Dilinolenyloxy-N,N-dimethylaminopropane] | extremely faint | –
